Ends that are not written are not given here.
Key:
patient-derived PBMC = test: 10-day interferon-gamma ELIspot on PBMC of patients and healthy donors; assay type: cell-based, human; settings: for % = Percent of patients with responses: ELIspot, patients with either breast or ovarian cancer; for fraction of patients that had mean T cell values above the cutoff: cutoff = mean and two standard deviations of normal healthy individuals
Description: Enzyme-linked immunosorbent spot assay.
An interferon-gamma ELIspot assay was used to assess immunity to the indiscriminate binding peptides in 48 patients with either breast or ovarian cancer and 18 healthy controls.
Using an ELIspot assay with a limit of detection of approximately 1:100,000 antigen-specific T cells per million PBMC, patient-derived PBMC were screened for reactivity against all of the HLA-DR binding peptides.

short term T cell lines = test: IFN-γ ELISpot analysis of short term T cell lines (natural processing); assay type: cell-based, human; settings: T cell lines respond to peptide and protein fragment; FIGS. 5, 6
purified HLA DRB1*0404 = molecular target: T1, purified HLA DRB1*0404 (Homo sapiens, UniProt P01903+P01911, A100R/A169T/F76Y/I96L/K127E/L162R/M171V/N62H/P40V/Q125Y/R42H/S133A/S149N/S66Y/V209L/W38E); test: HLA-DR radioligand binding inhibition assay, DRB1*0404
T1 construct: MHC molecules utilized were purified from EBV transformed homozygous cell lines or single MHC allele transfected 721.221, C1R, or fibroblast lines; made in house; host or cells: EBV transformed homozygous cell lines or single MHC allele transfected 721.221, C1R, or fibroblast lines
Method: Fifteen distinct HLA-DR molecules were used in quantitative assays to measure the binding of peptides to solubilized HLA-DR molecules. […] Briefly, columns of inactivated Sepharose CL4B and Protein A Sepharose were used as pre-columns. HLA-DR molecules were captured by passage of lysates over LB3.1 monoclonal antibody (anti-HLA-DRA) columns. Antibody columns were washed with 10 mM Tris-HCL, pH8.0 with 1% (v/v) NP-40, followed by PBS containing 0.4% (w/v) n-octylglucoside. […] The pH was reduced to 8.0 and the eluates were concentrated by centrifugation in Centriprep 30 concentrators at 2000 rpm (Amicon, Beverly, Mass.).
Briefly, 1-10 nM of radiolabeled peptide was co-incubated for 2 days at either room temperature or 37° C. with 1 μM to 1 nM purified HLA-DR molecules in the presence of a cocktail of protease inhibitors. Assays were performed at various pH conditions, ranging from pH 4 to pH 7. […] After incubation, the percentage of HLA-DR-bound radioactivity is determined by capturing HLA-DR/peptide complexes on Optiplates (Packard Instruments, Meriden, Conn.) coated with the LB3.1 antibody and determining bound counts per minute using the TopCount microscintillation counter (Packard Instruments). […] Competitor peptides are tested in 2-4 complete, independent experiments, at concentrations ranging from 30 μg/mL to 300 pg/mL.

purified HLA DRB1*0701 = molecular target: T2, purified HLA DRB1*0701 (Homo sapiens, UniProt P01903+P01911, A100R/A102G/A103Q/D57E/D86V/E43K/F76Y/K127E/L162R/M171V/P40G/Q125H/Q99D/R33Q/R42Y/R54Q/S133A/S66F/T210M/V115G/Y107V/Y59L/Y89S); test: HLA-DR radioligand binding inhibition assay, DRB1*0701
T2 construct: MHC molecules utilized were purified from EBV transformed homozygous cell lines or single MHC allele transfected 721.221, C1R, or fibroblast lines; made in house; host or cells: EBV transformed homozygous cell lines or single MHC allele transfected 721.221, C1R, or fibroblast lines
Method: Fifteen distinct HLA-DR molecules were used in quantitative assays to measure the binding of peptides to solubilized HLA-DR molecules. […] Briefly, columns of inactivated Sepharose CL4B and Protein A Sepharose were used as pre-columns. HLA-DR molecules were captured by passage of lysates over LB3.1 monoclonal antibody (anti-HLA-DRA) columns. Antibody columns were washed with 10 mM Tris-HCL, pH8.0 with 1% (v/v) NP-40, followed by PBS containing 0.4% (w/v) n-octylglucoside.
Briefly, 1-10 nM of radiolabeled peptide was co-incubated for 2 days at either room temperature or 37° C. with 1 μM to 1 nM purified HLA-DR molecules in the presence of a cocktail of protease inhibitors. Assays were performed at various pH conditions, ranging from pH 4 to pH 7. […] After incubation, the percentage of HLA-DR-bound radioactivity is determined by capturing HLA-DR/peptide complexes on Optiplates (Packard Instruments, Meriden, Conn.) coated with the LB3.1 antibody and determining bound counts per minute using the TopCount microscintillation counter (Packard Instruments).

Row | Compound | % = Percent of patients with responses (patient-derived PBMC) | naturally processed and presented antigen (short term T cell lines) | also measured
1 | CC(C)C[C@H](NC(=O)[C@H](CO)NC(=O)[C@H](C)NC(=O)[C@H](CC(N)=O)NC(=O)[C@@H](NC(=O)[C@@H]1CCCN1C(=O)[C@H](CC(C)C)NC(=O)[C@H](Cc1ccc(O)cc1)NC(=O)[C@@H](NC(=O)[C@H](CC(C)C)NC(=O)[C@H](CCC(=O)O)NC(=O)[C@H](CC(C)C)NC(=O)[C@@H](N)CC(N)=O)[C@@H](C)O)[C@@H](C)O)C(=O)N[C@@H](CO)C(=O)N[C@@H](Cc1ccccc1)C(=O)O [Peptide 9019.0030] | 15% | naturally processed and presented antigens | –
2 | CC(C)C[C@H](NC(=O)[C@@H]1CCCN1C(=O)[C@@H](NC(=O)[C@@H](NC(=O)[C@@H]1CCCN1C(=O)[C@H](CC(=O)O)NC(=O)[C@H](CCC(=O)O)NC(=O)[C@H](CO)NC(=O)[C@H](Cc1ccc(O)cc1)NC(=O)[C@H](CCCNC(=N)N)NC(=O)[C@H](CCC(N)=O)NC(=O)[C@@H](N)CC(C)C)[C@@H](C)O)C(C)C)C(=O)N1CCC[C@H]1C(=O)N[C@@H](CO)C(=O)N[C@@H](CCC(=O)O)C(=O)O [Peptide 9019.0099] | – | – | IC50 (purified HLA DRB1*0404): 13.1 µM
3 | CC(C)C[C@H](NC(=O)[C@H](CC(N)=O)NC(=O)[C@H](CO)NC(=O)[C@@H](NC(=O)[C@H](Cc1ccccc1)NC(=O)[C@H](CS)NC(=O)[C@H](C)NC(=O)[C@@H](N)Cc1ccc(O)cc1)C(C)C)C(=O)N[C@@H](C)C(=O)N[C@H](C(=O)NCC(=O)N[C@@H](CCCNC(=N)N)C(=O)N[C@@H](CC(N)=O)C(=O)N[C@@H](CC(N)=O)C(=O)N[C@@H](CO)C(=O)O)[C@@H](C)O [Peptide 9019.0141] | 25% | – | –
4 | CC[C@H](C)[C@H](NC(=O)[C@@H]1CCCN1)C(=O)N[C@@H](CCCCN)C(=O)N[C@@H](Cc1c[nH]c2ccccc12)C(=O)N[C@@H](CCSC)C(=O)N[C@@H](C)C(=O)N[C@@H](CC(C)C)C(=O)N[C@@H](CCC(=O)O)C(=O)N[C@@H](CO)C(=O)N[C@H](C(=O)N[C@@H](CC(C)C)C(=O)N[C@@H](CCCNC(=N)N)C(=O)N[C@@H](CCCNC(=N)N)C(=O)N[C@@H](CCCNC(=N)N)C(=O)N[C@@H](Cc1ccccc1)C(=O)O)[C@@H](C)CC [Peptide 9019.0087] | 25% | naturally processed and presented antigens | fraction of patients that had mean T cell values above the cutoff (patient-derived PBMC; FIG. 1): 25%
5 | CC(C)C[C@H](NC(=O)[C@H](CC(C)C)NC(=O)[C@H](CC(C)C)NC(=O)[C@H](CC(C)C)NC(=O)[C@H](CC(C)C)NC(=O)[C@H](CC(C)C)NC(=O)[C@@H]1CCCN1C(=O)[C@H](CC(C)C)NC(=O)[C@H](CC(C)C)NC(=O)[C@@H]1CCCN1C(=O)[C@H](CC(C)C)NC(=O)[C@@H](N)CC(C)C)C(=O)NCC(=O)N[C@@H](C)C(=O)N[C@@H](CO)C(=O)O [Peptide 9019.0176] | – | naturally processed peptides | –
6 | CC[C@H](C)[C@H](NC(=O)[C@H](Cc1c[nH]cn1)NC(=O)[C@H](CC(C)C)NC(=O)[C@H](CO)NC(=O)[C@H](Cc1ccc(O)cc1)NC(=O)[C@H](CC(C)C)NC(=O)[C@H](Cc1c[nH]cn1)NC(=O)[C@H](CCC(=O)O)NC(=O)[C@H](CC(C)C)NC(=O)[C@@H]1CCCN1C(=O)CNC(=O)[C@H](CCCNC(=N)N)NC(=O)[C@@H](N)CCC(=O)O)C(=O)N1CCC[C@H]1C(=O)N[C@@H](CC(N)=O)C(=O)O [Peptide 9019.0190] | 23% | naturally processed peptides | –
7 | CC[C@H](C)[C@H](NC(=O)[C@H](CCCNC(=N)N)NC(=O)[C@H](CC(C)C)NC(=O)[C@H](CCCNC(=N)N)NC(=O)[C@H](CCC(N)=O)NC(=O)[C@H](CC(C)C)NC(=O)[C@@H]1CCCN1C(=O)[C@@H](NC(=O)[C@H](CCC(N)=O)NC(=O)[C@H](CCCNC(=N)N)NC(=O)[C@@H](NC(=O)[C@H](CCC(N)=O)NC(=O)[C@H](CC(N)=O)NC(=O)[C@@H](N)Cc1c[nH]cn1)C(C)C)C(C)C)C(=O)N[C@H](C(=O)O)C(C)C [Peptide 9019.0034] | – | naturally processed and presented antigens | –
8 | CC[C@H](C)[C@H](NC(=O)[C@H](CC(C)C)NC(=O)[C@H](CCCCN)NC(=O)CNC(=O)[C@@H](N)[C@@H](C)O)C(=O)N[C@@H](CCC(N)=O)C(=O)NCC(=O)N[C@@H](C)C(=O)N1CCC[C@H]1C(=O)N[C@H](C(=O)N[C@H](C(=O)N[C@@H](CCCNC(=N)N)C(=O)NCC(=O)N[C@@H](CC(=O)O)C(=O)N1CCC[C@H]1C(=O)O)[C@@H](C)CC)[C@@H](C)O [Peptide 9019.0192] | – | naturally processed peptides | –
9 | GDPLNNTTPVTGASP [Peptide 9019.0036] | – | – | IC50 (purified HLA DRB1*0701): 13.2 µM
10 | CC(C)C[C@H](NC(=O)[C@H](CC(C)C)NC(=O)[C@H](CC(C)C)NC(=O)[C@H](CC(C)C)NC(=O)[C@H](CC(C)C)NC(=O)[C@H](CC(C)C)NC(=O)[C@@H]1CCCN1)C(=O)NCC(=O)N[C@@H](C)C(=O)N[C@@H](CO)C(=O)NCC(=O)NCC(=O)NCC(=O)NCC(=O)NCC(=O)O [Peptide 9019.0177] | – | naturally processed peptides | –
11 | CC[C@H](C)[C@H](N)C(=O)N[C@@H](CCCCN)C(=O)N[C@@H](Cc1c[nH]c2ccccc12)C(=O)N[C@@H](CCSC)C(=O)N[C@@H](C)C(=O)N[C@@H](CC(C)C)C(=O)N[C@@H](CCC(=O)O)C(=O)N[C@@H](CO)C(=O)N[C@H](C(=O)N[C@@H](CC(C)C)C(=O)N[C@@H](CCCNC(=N)N)C(=O)N[C@@H](CCCNC(=N)N)C(=O)N[C@@H](CCCNC(=N)N)C(=O)N[C@@H](Cc1ccccc1)C(=O)N[C@H](C(=O)O)[C@@H](C)O)[C@@H](C)CC [Peptide 9019.0003] | – | – | fraction of patients that had mean T cell values above the cutoff (patient-derived PBMC; FIG. 1): 4%; patient response rate on exclusion of one healthy individual's data point (patient-derived PBMC; FIG. 1, robust healthy responder excluded from cutoff): 15%
12 | CC[C@H](C)[C@H](NC(=O)[C@H](C)NC(=O)[C@@H](NC(=O)[C@@H]1CCCN1C(=O)[C@@H](NC(=O)[C@@H](N)CCCCN)[C@@H](C)CC)C(C)C)C(=O)N[C@@H](CCCCN)C(=O)N[C@H](C(=O)N[C@@H](CC(C)C)C(=O)N[C@@H](CCCNC(=N)N)C(=O)N[C@@H](CCC(=O)O)C(=O)N[C@@H](CC(N)=O)C(=O)N[C@H](C(=O)N[C@@H](CO)C(=O)N1CCC[C@H]1C(=O)O)[C@@H](C)O)C(C)C [Peptide 1622.03] | – | – | IC50 (purified HLA DRB1*0701): > 20 µM
13 | CC[C@H](C)[C@H](NC(=O)[C@@H](NC(=O)[C@H](CC(C)C)NC(=O)[C@H](CCCCN)NC(=O)[C@H](C)NC(=O)[C@@H](NC(=O)[C@@H](NC(=O)[C@@H]1CCCN1C(=O)[C@@H]1CCCN1C(=O)[C@H](CC(N)=O)NC(=O)[C@H](Cc1c[nH]c2ccccc12)NC(=O)[C@H](Cc1ccccc1)NC(=O)[C@@H](NC(=O)[C@H](CC(C)C)NC(=O)[C@@H](N)CC(C)C)[C@@H](C)O)[C@@H](C)O)[C@@H](C)O)[C@@H](C)O)C(=O)O [Peptide 9019.0105] | 17% | – | –
14 | CC[C@H](C)[C@H](NC(=O)[C@H](CC(=O)O)NC(=O)[C@H](CCCCN)NC(=O)[C@H](Cc1c[nH]c2ccccc12)NC(=O)[C@H](CC(C)C)NC(=O)[C@@H](NC(=O)[C@@H](NC(=O)[C@H](CC(=O)O)NC(=O)[C@H](CCC(N)=O)NC(=O)[C@H](Cc1ccc(O)cc1)NC(=O)[C@H](CS)NC(=O)[C@H](CC(C)C)NC(=O)[C@H](CCC(N)=O)NC(=O)[C@@H]1CCCN1C(=O)[C@@H](N)CC(N)=O)[C@@H](C)O)[C@@H](C)CC)C(=O)O [Peptide 9019.0041] | – | – | IC50 (purified HLA DRB1*0701): > 20 µM

Reference: US10556943B2, “HLA-DR binding peptides and their uses” (priority 2007, dated 2020)
